Experimental data: the supplement of paper PMC6045584
± gives the standard deviation of the averaged measurements.

What was measured:
[1] = compound: C[C@@H](Oc1cc(-c2cnn(C3CCNCC3)c2)cnc1N)c1c(Cl)ccc(F)c1Cl; assay: surviving fraction relative to DMSO-only wells; higher = less growth inhibition; conditions: exposure time: 5 days
Summary of the method: (§1)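 Tumour cell lines were seeded in log phase at 250–500 cells per well into 384-well plates. Starting 24 hours later, inhibitors were present continuously for five days at 0.5, 1, 5, 10, 50, 100, 500 and 1000 nM. Surviving fraction, from CellTiter-Glo luminescence, is normalised to the median of DMSO-only wells. Three screens per line were required, with replicate Pearson r >0.7 and median Z' >0.3 for a line to be kept.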

[2] = compound: CNC(=O)c1cc(Oc2ccc(NC(=O)Nc3ccc(Cl)c(C(F)(F)F)c3)cc2)ccn1 [SORAFENIB]; assay: as above; conditions: exposure time: 5 days
Summary of the method: as §1

Test System | surviving fraction ([1]; 0.5 nM) | surviving fraction ([1]; 1 nM) | surviving fraction ([1]; 5 nM) | surviving fraction ([1]; 10 nM) | surviving fraction ([1]; 50 nM) | surviving fraction ([1]; 100 nM) | surviving fraction ([1]; 1000 nM) | surviving fraction ([2]; 0.5 nM) | surviving fraction ([2]; 1 nM) | surviving fraction ([2]; 5 nM) | surviving fraction ([2]; 10 nM) | surviving fraction ([2]; 50 nM) | surviving fraction ([2]; 100 nM) | surviving fraction ([2]; 500 nM) | surviving fraction ([2]; 1000 nM) | surviving fraction ([1]; 500 nM)
T47D BREAST | 0.912 ± 0.03 | 0.949 ± 0.026 | 0.938 ± 0.049 | 0.95 ± 0.026 | 1.02 ± 0.038 | 1.03 ± 0.059 | 0.856 ± 0.041 | 1.083 ± 0.01 | 1.02 ± 0.028 | 1.07 ± 0.053 | 1.02 ± 0.046 | 1.14 ± 0.029 | 1.13 ± 0.018 | 1.149 ± 0.0045 | 1.12 ± 0.039 | –
U2OS BONE | 0.938 ± 0.047 | 0.974 ± 0.027 | 0.98 ± 0.028 | – | – | 0.976 ± 0.052 | 0.472 ± 0.012 | 1.01 ± 0.019 | 1.03 ± 0.027 | 1.06 ± 0.05 | 1.05 ± 0.029 | 1.08 ± 0.035 | – | 1.08 ± 0.016 | 1 ± 0.067 | 0.474 ± 0.02
VCAP PROSTATE | – | 0.919 ± 0.097 | 1.02 ± 0.091 | 1.01 ± 0.031 | 1.08 ± 0.055 | 0.897 ± 0.061 | 0.143 ± 0.0055 | 1.13 ± 0.17 | 1.17 ± 0.11 | 1.19 ± 0.12 | 1.08 ± 0.053 | 1.12 ± 0.21 | – | 1.13 ± 0.16 | 1.02 ± 0.062 | 0.429 ± 0.027
VP229 BREAST | 0.809 ± 0.029 | – | 0.95 ± 0.11 | 0.777 ± 0.12 | 1.08 ± 0.098 | – | 0.544 ± 0.024 | 0.934 ± 0.11 | 0.939 ± 0.05 | 1.06 ± 0.11 | 1 ± 0.11 | 1.21 ± 0.088 | 1.12 ± 0.17 | 1.31 ± 0.13 | 1.3 ± 0.028 | –
YAMATO SYNOVIAL | 0.796 ± 0.0095 | 0.763 ± 0.069 | 0.79 ± 0.015 | 0.724 ± 0.12 | 0.425 ± 0.015 | 0.309 ± 0.014 | 0.333 ± 0.024 | 1.26 ± 0.054 | 1.24 ± 0.066 | 1.37 ± 0.096 | 1.26 ± 0.078 | 1.44 ± 0.096 | 1.35 ± 0.05 | 1.18 ± 0.088 | 1.04 ± 0.056 | 0.279 ± 0.014
ZR751 BREAST | 0.874 ± 0.087 | 0.924 ± 0.052 | 0.873 ± 0.082 | 0.797 ± 0.046 | 0.82 ± 0.14 | 0.967 ± 0.052 | 0.699 ± 0.077 | 1.08 ± 0.086 | 1.04 ± 0.02 | 0.99 ± 0.056 | 1.02 ± 0.18 | 1.28 ± 0.042 | 1.31 ± 0.19 | – | 1.06 ± 0.072 | 0.727 ± 0.074
